Several values for one entry are separate records, joined by “and”; a condition that tells them apart may be missing. Equal entries are not always repeated. Where two headings read alike, the source gives them in different places. Marks after values point to notes of the source that are not given here.
Assays:
human plasma [1] = assay: Plasma protein binding via rapid equilibrium dialysis (RED), 10% plasma; type: in vitro ADME; conditions: RED, 10% plasma corrected for dilution
Description: Pooled human plasma (n = 3–4 donors) was obtained by centrifugation of blood (collected by the Australian Red Cross Blood Service, Melbourne, Australia or the Volunteer Blood Donor Registry, Clinical Translation Centre, Walter & Eliza Hall Institute of Medical Research, Parkville, Australia), or sourcing pooled plasma directly from commercial sources (Innovative Research Inc, MI) and stored frozen at − 80 °C.
Plasma was diluted 1:10 with pH 7.4 phosphate buffer (prepared by mixing 0.1 M sodium dihydrogen phosphate and 0.1 M disodium hydrogen phosphate (both containing 0.04 M NaCl) to pH 7.4) and spiked with compound to achieve a total measured concentration of ~ 1000–3000 ng/mL. Diluted plasma was vortex mixed briefly and aliquots (n = 3–4) were transferred to RED (Thermo Fisher Scientific, Waltham, MA) units that were placed at 37 °C under ambient atmosphere on a plate shaker. […] At the end of the dialysis period, samples were removed from both the donor and dialysate chambers of the RED units. […] Fraction unbound values were calculated for each individual RED unit and the mean and SD calculated for n = 3–4 replicates.
Briefly, the RED device was exposed for two 30 min periods and one overnight period to fresh solutions of compound prepared in pH 7.4 buffer at approximately 10% of the total dialysis concentration. Following the preincubations, solutions were removed from the RED device and discarded. […] Samples were removed and analysed as described above.
For binding assessments using 10% plasma, the unbound fraction (fu) in neat plasma was calculated using the average values for Ctotal and Cunbound and Eq.

[2] = Blood to plasma partitioning; type: in vitro ADME, human; conditions: human whole blood, 37 °C
Description: Human whole blood was collected and supplied by the Volunteer Blood Donor Registry (Clinical Translation Centre, Walter & Eliza Hall Institute of Medical Research, Parkville, Australia) and used on the day of collection. The haematocrit (Hct) was determined by centrifugation (13,000×g for 3 min using Clemets® Microhaematocrit centrifuge and Safecap® Plain Self-sealing Mylar wrapped capillary tubes) to ensure it was between 0.40 and 0.48. An aliquot was centrifuged (Heraeus, Multifuge 3 S-R; 4500×g) for 10 min to obtain plasma required for matrix matching purposes as described below.
Two aliquots of the spiked whole blood were transferred to fresh microcentrifuge tubes and maintained at 37 °C/5% CO2 in a humidified incubator. The pH was confirmed to be 7.4 ± 0.1 at the start and end of the incubation. At each time point (30 min and 4 h), one whole blood tube was removed from the incubator and mixed by gentle inversion, after which four replicate blood samples were taken and matrix matched with an equal volume of blank plasma. The remainder of the blood sample was centrifuged (Eppendorf, Mini Spin plus; 6700×g) for 2 min for the collection of 4 replicate plasma samples which were similarly matrix matched with an equal volume of blank whole blood. The 1:1 mixtures of blood/plasma were mixed, snap frozen in dry ice and stored at − 80 °C until analysis by LC–MS (Additional file 1: Table S2) against calibration standards prepared in the same mixed matrix. Any further distribution of compound into RBCs at this stage was irrelevant as the cells were lysed during the sample preparation and the total concentration in the mixed matrix was measured for both the calibration standards and samples.
The apparent whole blood-to-plasma partitioning ratio (B/P) was calculated as the ratio of the average concentration in the blood sample to that in the plasma fraction of the same whole blood sample. A standard deviation (SD) for each B/P value was calculated using the propagation of errors approach as described previously.

human liver microsomes [3] = assay: Binding to human liver microsomes via ultracentrifugation; type: in vitro ADME; conditions: 0.4 mg/mL protein
In short: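 Unbound fraction by ultracentrifugation: Cunbound measured in protein-free supernate, Ctotal from spiked tubes held at 37 °C, sampled at start and end to check degradation. Matrix was 0.4 mg/mL human liver microsomal protein, 0.1 M phosphate pH 7.4; matrix-matched analysis against one calibration curve.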

human liver microsomes [4] = assay: in vitro; conditions: for HLM CLint: human, microsomes
In short: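 Compound depletion in human liver microsomes was followed by LC–MS at 2–60 min, with cofactor-free controls. First-order depletion rate constants gave in vitro CLint (µL/min/mg protein), corrected to unbound CLint using measured microsomal fu.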

human plasma [5] = assay: Plasma protein binding via ultracentrifugation (UC); type: in vitro ADME; conditions: ultracentrifugation, neat plasma
In short: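 Pooled human plasma (3–4 donors) spiked and ultracentrifuged; protein-free supernate gave Cunbound, parallel tubes kept at 37 °C gave Ctotal and stability (start vs end). Samples matrix-matched 1:1 with opposite blank and quantified against a common calibration curve; fu SD by error propagation.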

10% FCS in DMEM = assay: Binding in DMEM with 10% FCS via ultracentrifugation; type: in vitro ADME, calf
Description: Dulbecco’s Modified Eagle’s Medium (DMEM) containing GlutaMAX-I was purchased from Invitrogen (Thermo Fisher Scientific) and stored at 4 °C. Medium was prepared by adding heat inactivated foetal calf serum (FCS, final 10% v/v), penicillin (final 100 U/mL), streptomycin (final 100 µg/mL) D-glucose (final 4.0 mg/mL) and sodium pyruvate (final 0.1 mg/mL).
An ultracentrifugation method adapted from a previous publication was initially used to assess plasma protein binding and binding in the other media. […] Additional ultracentrifuge tubes containing spiked matrix were maintained at 37 °C, 5% or 10% CO2 or normal atmosphere conditions, with aliquots being taken within 0.5 h of the start and at the end of ultracentrifugation to serve as controls for the assessment of stability and to obtain a measure of the total concentration (Ctotal). Following ultracentrifugation, the pH was checked and an aliquot of protein-free supernate was taken from each ultracentrifuge tube for determination of the unbound concentration (Cunbound).
Total matrix and protein free samples were analysed using a matrix matching approach whereby each sample was mixed in a 1:1 ratio with the opposite blank medium (i.e. blank total matrix or blank protein free buffer). For example, plasma samples were mixed with blank pH 7.4 buffer whereas plasma supernatant samples were mixed with blank plasma. Each of the sample sets were then assayed against a common calibration curve prepared in a 1:1 mixture of total matrix and protein free pH 7.4 buffer. […] The standard deviation for fu was calculated using the propagation of errors approach as described previously. The potential for compound degradation was assessed by comparing the average value for Ctotal at the start and end of the experiment.

Caco-2 cell monolayers = conditions: cited from earlier work
[6] = presaturation of device and 24 h dialysis
[7] = matrix: pH 7.4 buffer, ref 31 (quinine), 78 (DSM421)
[8] = matrix: human plasma, corrected for fu

Compound | Fraction unbound, human plasma (human plasma [1]; 6 h dialysis) | B/P (whole blood to plasma partitioning ratio) [2] | Fraction unbound, human plasma (human plasma [5]) | HLM CLint (human liver microsomes [4]) | Fraction unbound, 10% FCS in DMEM (10% FCS in DMEM) | Fraction unbound, human plasma (human plasma [1]; [6]) | Fraction unbound, HLM (human liver microsomes [3]) | Unbound CLint (human liver microsomes [4]) | A–B Papp (Caco-2 cell monolayers; [7]) | B–A Papp (Caco-2 cell monolayers; [7]) | efflux ratio (Caco-2 cell monolayers; [7]) | Literature ER (Caco-2 cell monolayers; Caco-2, ref [33], [35] of Additional file 1) | Literature Papp (Caco-2 cell monolayers; Caco-2 A-B, ref [33]–[35] of Additional file 1) | A–B Papp (Caco-2 cell monolayers; [8]) | B–A Papp (Caco-2 cell monolayers; [8]) | efflux ratio (Caco-2 cell monolayers; matrix: human plasma)
CS(=O)(=O)O.FC1CCN(CCOc2ccc(C3CCC4(CC3)OOC3(OO4)C4CC5CC(C4)CC3C5)cc2)CC1 (centres unmarked) [TDD-E209] | < 0.0001 | 0.51 ± 0.08 | 0.094 (0.011) |  |  | < 0.0001^c | 0.0003 ± 0.000010 | 85,000 µL/min/mg |  |  |  |  |  |  |  | 
Cc1cc(Nc2ccc(C(F)(F)F)nc2)n2nc(C(C)(F)F)nc2n1 [DSM421] | 0.035 (0.0044) | 0.53 ± 0.03 | 0.039 ± 0.007 | < 7^b µL/min/mg | 0.615 ± 0.043 |  |  | < 9.09^c µL/min/mg | 33 ± 2.5 10^−6 cm/s | 46 10^−6 cm/s | 1.4 |  |  |  |  | 
CN(C)C[c-]1cccc1CNc1ccnc2cc(Cl)ccc12.[Fe+2].c1cc[cH-]c1 (centres unmarked) [Ferroquine] |  | 1.6 ± 0.15 | 0.070 (0.0080) | 29.2 µL/min/mg | 0.364 ± 0.026 | 0.041 ± 0.0010^c | 0.27 ± 0.032 | 108 µL/min/mg |  |  |  |  |  |  |  | 
CC(C)(C)NCc1cc(Nc2ccnc3cc(Cl)ccc23)c2c(c1O)CCCC2 [Naphthoquine] | 0.019 (0.0010) | 1.14 ± 0.10 | 0.030 (0.0020) | 14.4 µL/min/mg |  | 0.018 ± 0.0010^c | 0.21 ± 0.015 | 68.6 µL/min/mg |  |  |  | 0.8 | 27.3 ± 0.6 10-6 cm/sec | 230 ± 32 10^−6 cm/s | 180 ± 10 10^−6 cm/s | 0.8 and 0.78
CCc1nc(N)nc(N)c1OCCCOc1ccccc1CCC(=O)O.Cl [P218] |  | 0.56 ± 0.03 | 0.13 ± 0.013 | < 7^b µL/min/mg | 0.684 ± 0.017 |  | 0.88 ± 0.041 | < 7.95^c µL/min/mg |  |  |  |  |  |  |  | 

The next lines start with results.

Fraction unbound, human plasma (human plasma [1]; 6 h dialysis) | B/P (whole blood to plasma partitioning ratio) [2] | Fraction unbound, human plasma (human plasma [5]) | HLM CLint (human liver microsomes [4]) | Fraction unbound, 10% FCS in DMEM (10% FCS in DMEM) | Compound | Fraction unbound, human plasma (human plasma [1]; [6]) | Fraction unbound, HLM (human liver microsomes [3]) | Unbound CLint (human liver microsomes [4]) | A–B Papp (Caco-2 cell monolayers; [7]) | B–A Papp (Caco-2 cell monolayers; [7]) | efflux ratio (Caco-2 cell monolayers; [7]) | Literature ER (Caco-2 cell monolayers; Caco-2, ref [33], [35] of Additional file 1) | Literature Papp (Caco-2 cell monolayers; Caco-2 A-B, ref [33]–[35] of Additional file 1) | A–B Papp (Caco-2 cell monolayers; [8]) | B–A Papp (Caco-2 cell monolayers; [8]) | efflux ratio (Caco-2 cell monolayers; matrix: human plasma)
0.24 ± 0.0020^b | 1.3 ± 0.02 | 0.34 (0.021) | 11.1 µL/min/mg | 0.638 ± 0.065 | O=C(NCCN1CCCC1)c1cc(-c2ccc(CN3CCOCC3)cc2)nc2ccc(F)cc12 [M5717] |  | 0.50 ± 0.041 | 22.2 µL/min/mg |  |  |  |  |  |  |  | 
0.0011 (0.0002) | 0.54 ± 0.04 | 0.071 | 9.50 µL/min/mg | 0.227 ± 0.012 | CC(C)(C)NCc1cc(C(C)(C)C)cc(-c2cnc(C(F)(F)F)c(F)c2)c1O [JPC3210] |  | 0.029 ± 0.0030 | 328 µL/min/mg |  |  |  |  |  |  |  | 
< 0.0001 | 0.53 ± 0.05 | 0.011 (0.0020) | < 7^b µL/min/mg | 0.001 ± 0.001 | COc1cc2[nH]c(C)c(-c3ccc(Oc4ccc(OC(F)(F)F)cc4)cc3)c(=O)c2cc1Cl [ELQ300] | 0.00010 ± 0.000010^c | 0.002 ± 0.00010 | < 3500^c µL/min/mg |  |  |  |  |  |  |  | 
< 0.0003 | 1.09 ± 0.07 | 0.046 (0.0090) | < 7^b µL/min/mg | 0.043 ± 0.004 | COc1cc(N[C@H](C)CCCN)c2nccc(C)c2c1Oc1ccc(Cl)c(Cl)c1 [NPC1161B] | 0.00074 ± 0.00016^c |  |  |  |  |  |  |  |  |  | 

Reference: publication PMC6941357, “An in vitro toolbox to accelerate anti-malarial drug discovery and development” (Malaria Journal, 2020)
